# Test results reported in patent US8435978B2, “Substituted sulfonamide compounds” (Gruenenthal GmbH, priority 2006, dated 2013).
# Experiments:
# human B1R receptor = molecular target: T1, human B1R receptor (Homo sapiens, UniProt P46663); test: Functional study on the bradykinin receptor 1 (B1R), FLIPR Ca2+ assay, hB1R cells; format: cell-based; details: test substance 10 μM; hB1R CHO K1 cells; agonist Lys-Des-Arg9-bradykinin 0.5 nM; % inhibition compared with the maximum achievable inhibition
# T1 construct: host or cells: CHO K1 cells (Chinese hamster ovary), stably transfected
# T1 sequence (P46663 1-353): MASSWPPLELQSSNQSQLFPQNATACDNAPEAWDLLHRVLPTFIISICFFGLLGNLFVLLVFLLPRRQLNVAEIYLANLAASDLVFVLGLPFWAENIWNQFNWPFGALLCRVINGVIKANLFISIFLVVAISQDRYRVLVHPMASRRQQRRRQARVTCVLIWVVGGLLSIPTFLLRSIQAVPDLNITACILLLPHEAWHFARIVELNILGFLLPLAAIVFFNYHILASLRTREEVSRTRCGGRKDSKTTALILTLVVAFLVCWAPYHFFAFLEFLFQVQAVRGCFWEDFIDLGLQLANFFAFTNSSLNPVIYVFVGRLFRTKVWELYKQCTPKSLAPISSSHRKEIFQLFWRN
# Method in brief: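 FLIPR Ca2+ read-out (Fluo-4, peak fluorescence) in stably transfected CHO K1 cells. Compounds at 10 μM, then 10 min later agonist challenge: human B1R with Lys-Des-Arg9-bradykinin 0.5 nM, rat B1R with Des-Arg9-bradykinin 100 nM; reported as % activation or % of maximal inhibition.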
# [1] = system: formalin-induced pain behavior; test: Formalin test in the mouse (phase 2, chronic pain component); format: in vivo; details: iv, 5 min. before formalin injection, observation 21 to 24 minutes after formalin
# Method: The formalin test (Dubuisson, D. and Dennis, S. G., 1977, Pain, 4, 161-174) represents a model for both acute and chronic pain. By means of a single formalin injection into the dorsal side of a rear paw, a biphasic nociceptive reaction is induced in freely mobile test animals; the reaction is detected by observing three behaviour patterns which are clearly distinguishable from one another. The reaction is two-phase: phase 1=immediate reaction (duration up to 10 min., shaking of the paw, licking), phase 2=late reaction (after a rest phase; likewise shaking of the paw, licking; duration up to 60 min.). The 1st phase reflects a direct stimulation of the peripheral nocisensors with high spinal nociceptive input (acute pain phase); the 2nd phase reflects a spinal and peripheral hypersensitization (chronic pain phase). In the studies described here, the chronic pain component (phase 2) has been evaluated. Formalin in a volume of 20 μl and a concentration of 1% is administered subcutaneously into the dorsal side of the right rear paw of each animal. The specific changes in behavior, such as lifting, shaking or licking of the paw (score 3, Dubuisson & Dennis, 1977), are observed and recorded in the observation period of 21 to 24 minutes following the formalin injection. The behaviour of the animals after administration of the substance (n=10 per dose of substance) was compared with a control group which received vehicle (n=10). Based on the quantification of the pain behavior, the action of the substance in the formalin test was determined as the change in percent compared with the control. The ED50 calculations (ED50=mean effective dose) were carried out by regression analysis according to the method of Litchfield and Wilcoxon (Litchfield, J. T., Wilcoxon, J. J., 1949, J. Pharmacol. Exp. Ther. 96, 99-113). The time of administration before the formalin injection was chosen in dependence on the mode of administration of the compounds according to the invention (intravenous: 5 min.).
structure (smiles),measurement,setting,value
"COc1cc(C)c(S(=O)(=O)N2CCCCC2COCC(=O)N2CCN(C3CCN(C)CC3)CC2)c(C)c1 (centres unmarked) [Example 8, 2-[1-(4-methoxy-2,6-dimethyl-phenylsulfonyl)-piperidin-2-ylmethoxy]-1-[4-(1-methyl-piperidin-4-yl)-piperazin-1-yl]-ethanone]","B1R Antagonism, human [10 μM] % Inhibition",human B1R receptor,101.66%
same,ED50,[1],12.8 mg/kg
